We go through 25 molecules from US7094909B2, “HIV protease inhibitors, compositions containing the same, their pharmaceutical uses and materials for their synthesis” (priority 2001, dated 2006).

Assay [1] addresses T1, HIV-1 protease (Q7S mutant form) (Human immunodeficiency virus type 1 group M subtype B, UniProt P04585, Q495S).
T1 construct: made in house
Kind of assay: HIV-1 Protease RET assay. In kind it is biochemical. The gist of the method:
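Ki values fitted with the Morrison tight-binding equation from steady-state RET cleavage (ex 340, em 490 nm) of 5 μM RE(EDANS)SQNYPIVQK(DABCYL)R. Buffer pH 4.8 acetate, 1M NaCl, 5 mM DTT, 1 mg/ml BSA, 10% DMSO; 2 nM Q7S mutant dimer, 37 °C, 12 min.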

In assay [2] the test system is HIV-1 (HIV-1 RF, HIV-1 NL4-3) in CEM-SS / MT-2 cells. Put plainly: Cytopathic effect (CPE) inhibition assay (XTT/MTT dye reduction). In kind it is cell-based. An outline of the steps:
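Readout is XTT reduction (A450, 4 h) after six days of culturing virus-infected (moi 0.025–0.819) or mock-infected CEM-SS/MT-2 cells, 2×10^4 per well, with half-log compound series. Antiviral EC50 and cytotoxic CC50 are relative to uninfected compound-free cells. Therapeutic index is CC50 divided by EC50.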
In general terms: Cytopathic effects are the visible damage that an infection or toxin causes in cultured cells.

Setting [3] is: Human immunodeficiency virus 1, NL43, unit inferred, read-out: EC50.
Setting [4] is: Ave. Ki (nM), RET assay, Q7S enzyme, Morrison tight binding fit.
Setting [5] is: Human immunodeficiency virus 1, NL43, read-out: Ave CPE EC50.

Like-named read-outs stand apart in the source and are kept apart here.

The term Ki denotes a dissociation constant, usually derived from enzyme kinetics or from competition with a known ligand. The EC50 is the concentration that produces a half-maximal response. Take `Cc1ccccc1CNC(=O)[C@H]1N(C(=O)[C@@H](O)[C@H](Cc2ccccc2)NC(=O)COc2cccc(N3CCOCC3)c2)CSC1(C)C`: the affinity in assay [1] (Ki, unit inferred) corresponds to a Ki of 4.4 nM. Moreover, the EC50 in assay [2] (setting [3]) was at least 3.2 µM.
`Cc1ccccc1CNC(=O)[C@H]1N(C(=O)[C@@H](O)[C@H](Cc2ccccc2)NC(=O)OC(C)C)CSC1(C)C` [Example B16, {(S)-1-Benzyl-3-[5,5-dimethyl-4-(2-methyl-benzylcarbamoyl)-thiazolidin-3-yl]-2-hydroxy-3-oxo-propyl}-carbamic acid isopropyl ester] came in with a Ki in assay [1] (setting [4]) of 2.6 nM. In addition, the EC50 in assay [2] (setting [5]) was 1.57 µM.
The like results for `Cc1ccccc1CNC(=O)[C@H]1N(C(=O)[C@@H](O)[C@H](Cc2ccccc2)NC(=O)c2cccc3[nH]ccc23)CSC1(C)C` [Example B8, 1H-Indole-4-carboxylic acid {(1S,2S)-1-benzyl-3-[(R)-5,5-dimethyl-4-(2-methyl-benzylcarbamoyl)-thiazolidin-3-yl]-2-hydroxy-3-oxo-propyl}-amide] were, in that order, 0.63 nM and 0.474 µM.
For `CCCNC(=O)[C@@H]1CC(F)(F)CN1C(=O)[C@@H](O)[C@H](Cc1ccccc1)NC(=O)c1cccc(O)c1C` [Example C7, 4,4-Difluoro-1-[2-hydroxy-3-(3-hydroxy-2-methyl-benzoylamino)-4-phenyl-butyryl]-pyrrolidine-2-carboxylic acid propylamide] the same measures were 3 nM and 0.347 µM.
The like results for `Cc1ccccc1CNC(=O)[C@@H]1C2CCC(C2)N1C(=O)[C@@H](O)[C@H](Cc1ccccc1)NC(=O)c1cccc(O)c1C` (some centres unmarked) [Example C50, 2-(2-Hydroxy-3-{[1-(-hydroxy-2-methyl-phenyl)-methanoyl]-amino}-4-phenyl-butanoyl)-2-aza-bicyclo[2.2.1]-heptane-3-carboxylic acid-2-methyl-benzylamide] were, in that order, 7.9 nM and 0.997 µM.
For the molecule `CCC(C)C(=O)N[C@@H](Cc1ccccc1)[C@H](O)C(=O)N1CSC(C)(C)[C@H]1C(=O)NCc1ccccc1C` (stereo partly drawn) [Example B12, (R)-3-[(2S,3S)-2-Hydroxy-3-(2-methyl-butyrylamino)-4-phenyl-butyryl]-5,5-dimethyl-thiazolidine-4-carboxylic acid 2-methyl-benzylamide], the Ki in assay [1] (setting [4]) came to 9.9 nM. The EC50 in assay [2] (setting [5]) is above 1 µM.
For `COc1ccc(CNC(=O)[C@@H]2CC(F)(F)CN2C(=O)[C@@H](O)[C@H](Cc2ccccc2)NC(=O)c2cccc(O)c2C)cc1` [Example C13, (S)-4,4-Difluoro-1-[(2S,3S)-2-hydroxy-3-(3-hydroxy-2-methyl-benzoylamino)-4-phenyl-butyryl]-pyrrolidine-2-carboxylic acid 4-methoxy-benzylamide] the same measures were 0.59 nM and 1.18 µM.
`Cc1cccc(C)c1OCC(=O)N[C@@H](Cc1ccccc1)[C@H](O)C(=O)N1CSC(C)(C)[C@H]1C(=O)NCc1c(F)cccc1F` displayed a Ki in assay [1] (Ki, unit inferred) of 0.32 nM. Besides, in assay [2] (setting [3]), the EC50 came out at 1.88 µM.
In turn, `Cc1c(O)cccc1C(=O)N[C@@H](Cc1ccccc1)[C@H](O)C(=O)N1CSC(C)(C)[C@H]1C(=O)NN(C)c1ccccc1` [Example A57, N-{(1S,2S)-1-Benzyl-3-[(R)-5,5-dimethyl-4-(N′-methyl-N′-phenyl-hydrazinocarbonyl)-thiazolidin-3-yl]-2-hydroxy-3-oxo-propyl}-3-hydroxy-2-methyl-benzamide] registered an inhibition constant Ki in assay [1] (setting [4]) of 5.6 nM. For the same molecule, in assay [2] (setting [5]), the EC50 was found to be 1.53 µM.
With `Cc1ccccc1CCC(=O)[C@H]1N(C(=O)[C@@H](O)[C@H](Cc2ccccc2)NC(=O)O[C@H]2CCOC2)CSC1(C)C`, affinity in assay [1] (Ki, unit inferred) was put at a Ki of 0.76 nM. The EC50 in assay [2] (setting [3]) is 0.573 µM.
With `CC1(C)SCN(C(=O)[C@@H](O)[C@H](Cc2ccccc2)NC(=O)c2cccc3[nH]ncc23)[C@@H]1C(=O)NCc1ccco1` [Example B37, 1-H-indazole-4-carboxylic acid (1-benzyl-3-{4[(furan-2-ylmethyl)-carbamoyl]-5,5-dimethyl-thiazolidin-3-yl}-2-hydroxy-3-oxo-propyl)-amide], affinity in assay [1] (setting [4]) was put at a Ki of 7.4 nM. In addition, the concentration giving a half-maximal response (EC50) in assay [2] (setting [5]) was determined as 0.529 µM.
In assay [1] (Ki, unit inferred), `Cc1c(O)cccc1C(=O)N[C@@H](Cc1ccccc1)[C@H](O)C(=O)N1CSC(C)(C)[C@H]1C(=O)NC1CCC(C(C)(C)C)CC1` (some centres unmarked) displayed a Ki of 26 nM. For the same molecule, the 50% effective concentration (EC50) in assay [2] (setting [3]) came to 1.23 µM.
Take `CC1(C)SCN(C(=O)[C@@H](O)[C@H](Cc2ccccc2)NC(=O)c2cccc3c2CCN3)[C@@H]1C(=O)N[C@H]1CCOc2ccccc21` [Example B29, 2,3-Dihydro-1H-indole-4-carboxylic acid {(1S,2S)-1-benzyl-3-[(R)-4-((S)-chroman-4-ylcarbamoyl)-5,5-dimethyl-thiazolidin-3-yl]-2-hydroxy-3-oxo-propyl}-amide]: in assay [1] (setting [4]), the inhibition constant (Ki) worked out at 0.82 nM. In addition, in assay [2] (setting [5]), the half-maximal effective concentration (EC50) worked out at 0.063 µM.
For `Cc1c(O)cccc1C(=O)N[C@@H](Cc1ccccc1)[C@H](O)C(=O)N1CSC(C)(C)[C@H]1C(=O)NC1CCCC1` [Example A27, (R)-3-((2S,3S)-2-Hydroxy-3-{[1-(3-hydroxy-2-methyl-phenyl)-methanoyl]-amino}-4-phenyl-butanoyl)-5,5-dimethyl-thiazolidine-4-carboxylic acid cyclopentylamide] the same measures were below 0.1 nM and 0.11 µM.
`Cc1c(O)cccc1C(=O)N[C@@H](Cc1ccccc1)[C@H](O)C(=O)N1CC(F)(F)C[C@H]1C(=O)NCc1ccc2c(c1)OCO2` [Example C11, 4,4-Difluoro-1-[2-hydroxy-3-(3-hydroxy-2-methyl-benzoylamino)-4-phenyl-butyryl]-pyrrolidine-2-carboxylic acid (benzo[1,3]dioxol-5-ylmethyl)-amide] displayed a Ki in assay [1] (setting [4]) of 2.8 nM. Further, in assay [2] (setting [5]), the EC50 was 1.31 µM.
The like results for `Cc1c(O)cccc1C(=O)N[C@@H](Cc1ccccc1)[C@H](O)C(=O)N1CSC(C)(C)[C@H]1C(=O)NC1CCC1` [Example A26, (R)-3-((2S,3S)-2-Hydroxy-3-{[1-(3-hydroxy-2-methyl-phenyl)-methanoyl]-amino}-4-phenyl-butanoyl)-5,5-dimethyl-thiazolidine-4-carboxylic acid cyclobutylamide] were, in that order, 0.6 nM and 0.168 µM.
The like results for `Cc1c(O)cccc1C(=O)N[C@@H](Cc1ccccc1)[C@H](O)C(=O)N1CSC(C)(C)[C@H]1C(=O)NCc1csc2ccc(Cl)cc12` [Example A24, (R)-3-((2S,3S)-2-Hydroxy-3-{[1-(3-hydroxy-2-methyl-phenyl)-methanoyl]-amino}-4-phenyl-butanoyl)-5,5-dimethyl-thiazolidine-4-carboxylic acid (5-chloro-benzo[b]thiophen-3-ylmethyl)-amide] were, in that order, 0.52 nM and 0.466 µM.
For `Cc1c(O)cccc1C(=O)N[C@@H](Cc1ccccc1)[C@H](O)C(=O)N1CSC(C)(C)[C@H]1C(=O)NCc1n[nH]c2ccccc12` [Example A44, 3-(2-Hydroxy-3-{[1-(3-hydroxy-2-methyl-phenyl)-methanoyl]-amino}-4-phenyl-butanoyl)-5,5-dimethyl-thiazolidine-4-carboxylic acid (1H-indazol-3-ylmethyl)-amide], the Ki in assay [1] (setting [4]) was determined as 1.4 nM. Moreover, the EC50 in assay [2] (setting [5]) worked out at 0.478 µM.
In assay [1] (setting [4]), `CC1(C)SCN(C(=O)[C@@H](O)[C@H](Cc2ccccc2)NC(=O)c2cccc3c2CCN3)[C@@H]1C(=O)N[C@H]1CCc2ccccc21` [Example B42, 2,3-Dihydro-1H-indole-4carboxylic acid {(1S,2S)-1-benzyl-2-hydroxy-3-[(R)-4-((S)-indan-1-ylcarbamoyl)-5,5-dimethyl-thiazolidin-3-yl]-3-oxo-propyl}-amide] displayed a Ki of 0.13 nM. The EC50 in assay [2] (setting [5]) came to 0.155 µM.
As for `Cc1ccccc1CNC(=O)[C@H]1N(C(=O)[C@@H](O)[C@H](Cc2ccccc2)NC(=O)OCCCl)CSC1(C)C`, in assay [1] (Ki, unit inferred), affinity was put at a Ki of 0.44 nM. Also, in assay [2] (setting [3]), the EC50 worked out at 1.43 µM.
`C#CCOC(=O)N[C@@H](Cc1ccccc1)[C@H](O)C(=O)N1CSC(C)(C)[C@H]1C(=O)NCc1ccccc1C` [Example B10, {(1S,2S)-1-Benzyl-3-[(R)-5,5-dimethyl-4-(2-methyl-benzylcarbamoyl)-thiazolidin-3-yl]-2-hydroxy-3-oxo-propyl}-carbamic acid prop-2-ynyl ester] yielded an inhibition constant Ki in assay [1] (setting [4]) of 0.57 nM. Besides, the EC50 in assay [2] (setting [5]) worked out at 0.386 µM.
In assay [1] (Ki, unit inferred), `COc1cc2c(cc1OC)CN(C(=O)[C@H]1N(C(=O)[C@@H](O)[C@H](Cc3ccccc3)NC(=O)c3cccc(O)c3C)CSC1(C)C)CC2` came in with a Ki of 46 nM. The EC50 in assay [2] (setting [3]) was at least 10 µM.
The like results for `Cc1ccccc1CNC(=O)[C@H]1N(C(=O)[C@@H](O)[C@H](Cc2ccccc2)NC(=O)C(F)(F)F)CSC1(C)C` were, in that order, 17.1 nM and 2.2 µM.
For `CC(=O)Oc1cccc(C(=O)N[C@@H](CSc2ccccc2)[C@H](O)CN2C[C@H]3CCCC[C@H]3C[C@H]2C(=O)NCc2ccccc2C)c1C` the same measures were 109 nM and 0.672 µM.
Regarding `Cc1c(O)cccc1C(=O)N[C@@H](Cc1ccccc1)[C@H](O)C(=O)N1CSC(C)(C)[C@H]1C(=O)NCc1ccccn1` [Example A3, (R)-3-((2S,3S)-2-Hydroxy-3-{[1-(3-hydroxy-2-methyl-phenyl)-methanoyl]-amino}-4phenyl-butanoyl)-5,5-dimethyl-thiazolidine-4-carboxylic acid (pyridin-2-ylmethyl)-amide], the inhibition constant (Ki) in assay [1] (setting [4]) is 0.51 nM. Also, the EC50 in assay [2] (setting [5]) came to 0.156 µM.
